Publication PMC2678990, “Stilbene glycosides are natural product inhibitors of FGF-2-induced angiogenesis” (BMC Cell Biology, 2009)

Key:
BAEC [1] = assay: EGF-induced proliferation; assay type: cell-based, bovine; conditions: EGF 75 ng/ml, 72 h, NS = inhibition less than 50%
Protocol: (§1) Cells were seeded in triplicate at a concentration of 6.0 × 10^5/ml, in 2 ml of complete medium in 6-well plates. […] Growth factors, FGF-2 (25 ng/ml), EGF (75 ng/ml) and VEGF (10 ng/ml) and test compounds at different concentration were added and cells incubated for a further 72 h. Control wells were treated with 5 μl DMSO. Concentration ranges of test compounds and pre-incubation times were based on pilot studies. After 72 h, cells were washed in PBS, detached in 0.05%w/v trypsin in PBS, and counted on a Coulter counter (Coulter Electronics, Hialeah, FL) set to a threshold of 30 μm. Experiments were performed in triplicate and repeated at least twice.

BAEC [2] = assay: FGF-2-induced tube formation in Matrigel; assay type: cell-based, bovine; conditions: Matrigel; for IC50: 24 h, FGF-2 25 ng/ml
Protocol: Cells (1.0 × 10^6/ml) were mixed with an equal volume of Matrigel (Becton -Dickinson, Oxford, UK; prepared according to the supplier's instructions) at 4°C. Aliquots (80 μl) were added to the wells of a 48-well plate and allowed to polymerise (1 h) then 500 μl of 15% FCS containing FGF-2 (25 ng/ml; or other growth factors), with or without test compounds was added. The cells were incubated for 24 h at 37°C then fixed in 4% paraformaldehyde (5 min), washed in cold ethanol and the plate air dried. Cells were stained with Geimsa (30 s), air dried and photographed. Ten random fields were selected and the number of closed tubes counted.

HDMEC [3] = assay: FGF-2 invasion in Matrigel; assay type: cell-based, human; conditions: Homo sapiens, FGF-2 25 ng/ml
HDMEC [4] = assay: FGF-2-induced chemotaxis, Boyden chamber assay; assay type: cell-based; conditions: Homo sapiens, 6 h, FGF-2 25 ng/ml
Protocol: (§2) The effect of compounds 1 and 2 on cell migration was examined in vitro using a modified Boyden chamber system with 8.0 μm pore polycarbonate filter inserts (TSL, UK). The filter was coated overnight with 0.1%w/v gelatine, and air-dried. Cells (1 × 10^5) were placed in the upper part of the filter and test compounds at different concentrations with and without growth factors were added to the lower part in SPM. Cells were incubated at 37°C for 6 h and the filter removed and the upper side containing non migrated cells wiped and rinsed. The filters were fixed (4% paraformaldehyde), and stained (Geimsa) and cell migration in duplicate wells was determined by counting cell numbers on the lower surface. Experiments were performed in triplicate and at least two times.

BAEC [5] = assay: VEGF-induced proliferation; assay type: cell-based, bovine; conditions: 72 h, NS = inhibition less than 50%
Protocol: as §1

BAEC [6] = assay: FGF-2-induced proliferation; assay type: cell-based, bovine; conditions: Bos taurus, FGF-2 25 ng/ml, 72 h, NS = inhibition less than 50%
Protocol: as §1

phospho-ERK1/2 in BAEC = assay: Western blot of ERK1/2 phosphorylation; assay type: cell-based, bovine; conditions: BAEC; FGF-2 25 ng/ml; Western blot
Protocol: Figure 9 (A) Western blots of p-ERK-1 and -2 were performed on BAEC treated with compound 1 as described below. (B) The bar charts show relative protein expression compared to the control given an arbitrary value of 1.0. All experiments were performed at least twice and a representative example is shown. Lane 1 control, lane 2 FGF-2 (25 ng/ml), lane 3 compound 1 ([…]), lane 4 compound 1 (14.3 μM) + FGF-2, lane 5 compound 1 (28.6 μM), lane 6 compound 1 (28.6 μM) + FGF-2.
The method is described in detail elsewhere. In brief, cells were lysed in RIPA buffer, protein concentration determined using the Biorad assay, and approximately 20 μg aliquots separated by 12% SDS-PAGE, electroblotted onto nitrocellulose filters (Hoefer, San Francisco, Ca, USA), blocked overnight with 1% BSA in TBS-Tween and incubated for 4 h at RT with characterised antibodies to phosphor-ERK1/2 (AutogenBioclear, mouse monoclonal, 1:1000). α-Actin (Sigma, UK; 1:1000) was used as a loading control. Filters were washed in TBS-Tween and stained with antibodies to peroxidase-conjugated secondary antibody. Proteins were detected with the ECL system (Amersham, UK). Protein expression was estimated spectrophotometrically from band intensity. Results are semi-quantitative and given a numerical value compared to the weakest observed band assigned an arbitrary value of 1.0. […]

BAEC [7] = assay: FGF-2-induced chemotaxis, Boyden chamber assay; assay type: cell-based, bovine; conditions: Bos taurus, 6 h, FGF-2 25 ng/ml
Protocol: as §2

[8] = tested on: chick chorioallantoic membrane; assay: Chick chorioallantoic membrane (CAM) assay; assay type: in vivo
Protocol: The angiogenic activity of test compounds was determined using the semi-quantitative chick chorioallantoic assay (CAM) as described previously. To expose the CAM a window was created in the shells of 4 day-old chicken eggs. […] […] This approach enabled calculation of an accumulated response in each group. To photograph the membrane, 2 cm^3 of a 50% emulsion of aqueous paraffin oil containing 2% Tween-80 was injected at the site of application and photographed using a Leitz dissecting microscope. Each experiment was performed five times and statistical significance was determined by the Mann-Whitney U test and the data is expressed as a median value (m).

HDMEC [9] = assay: VEGF-induced proliferation; assay type: cell-based, human; conditions: 72 h, NS = inhibition less than 50%
Protocol: as §1

For `COc1cc(C=Cc2ccc(O)cc2)cc(OC2OC(COC3OC(C)C(O)C(O)C3O)C(O)C(O)C2OC2OC(C)C(O)C(O)C2O)c1` (centres unmarked) [Compound 1], the IC50 (BAEC [1]; Bos taurus) was over 71.5 µM, the “EGF-induced proliferation, IC50” value (BAEC [1]) was “no significant inhibitory effect” and the IC50 (BAEC [2]; Bos taurus) was 11.1 ± 0.28 µM. The IC50 (BAEC [2]) was 18.2 ± 0.65 µM, the “Effect on tube formation in the absence of FGF-2” value (BAEC [2]; without FGF-2) was “no inhibitory effect” and the IC50 (HDMEC [3]) was 5.8 ± 0.18 µM. For the same molecule, the IC50 (HDMEC [4]) was 21.5 ± 0.6 µM, the “VEGF-induced proliferation, IC50” value (BAEC [5]) was “no significant inhibitory effect” and the IC50 (BAEC [5]; Bos taurus) was over 71.5 µM. The IC50 (BAEC [6]) was 48.9 ± 0.4 µM, the “Inhibition of FGF-2-induced ERK1/2 phosphorylation” value (phospho-ERK1/2 in BAEC) was “inhibited” and the IC50 (BAEC [7]) was 30.1 ± 0.85 µM. For the same molecule, the “Inflammatory or angiogenic response of compound alone” value ([8]; 10 μg compound alone, without FGF-2) was “no inflammatory or angiogenic response”, the “In vivo CAM assay, inhibition of FGF-2-induced angiogenesis” value ([8]; 10 μg compound with FGF-2, 6 days exposure, listed as I) was “complete inhibition” and the “Degree of angiogenesis (m), median score” value ([8]; 10 μg compound with FGF-2, scale 0 to 3 or greater) was 0. For the same molecule, the “VEGF-induced proliferation, IC50” value (HDMEC [9]) was “no significant inhibitory effect” and the IC50 (HDMEC [9]; Homo sapiens) was over 71.5 µM.
